These results are taken from US6787552B2, “PPAR delta activators” (Nippon Chemiphar Co., Ltd., priority 2000, dated 2004).

“And” between values parts separate entries of the source, which are not always exact repeats. Identical values can stand only once.

Holding throughout (assay type): cell-based
The target of one assay is T1, PPARα (Homo sapiens, UniProt Q07869).
T1 construct: Receptor expression plasmid (GAL4-hPPARα, LBD GAL4-hPPARγ LBD, GAL4-hPPARδ LBD); expressed in transfected cells; host or cells: CV-1 cells
T1 sequence (Q07869 239-466 limits assumed): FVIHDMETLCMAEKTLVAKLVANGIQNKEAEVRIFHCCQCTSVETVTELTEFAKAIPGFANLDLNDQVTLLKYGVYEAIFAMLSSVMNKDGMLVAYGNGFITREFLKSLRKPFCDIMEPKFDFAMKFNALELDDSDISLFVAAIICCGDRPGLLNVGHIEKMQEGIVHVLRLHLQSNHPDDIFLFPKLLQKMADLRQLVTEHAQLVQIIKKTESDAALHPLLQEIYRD
The assay is described as follows: PPARα transactivation activity (GAL4-hPPARα LBD / UASx4-TK-LUC reporter in CV-1 cells). To be noted: for PPARα transactivation activity: a relative value (control = 100%): CV-1 cells, Table 25; for Emax: CV-1, in the manner as described in Example 9, Table 26, read-out: PPARα (PPAR activating power). The procedure: (§1) (1) Measurement of PPARα,γ,δ Transactivation Activity
(§2) PPARα,γ,δ transactivation activity of each compound [Examples 1-6 and known PPARδ agonist (L-16504: Berger, J., et al. (1999), J. Biol. Chem., 274:6718-6725)] was measured in the manner described below.
(§3) CV-1 was obtained from Tohoku University Aging Medical Laboratory, Medical Cell Collection Center. All test compounds were dissolved in dimethylsulfoxide (DMSO) to give a test sample of 0.1% concentration.
(§4) Receptor expression plasmid (GAL4-hPPARα, LBD GAL4-hPPARγ LBD, GAL4-hPPARδ LBD), Reporter plasmid (UASx4-TK-LUC), and β-galactosidase expression plasmid (βGAL) similar to Kliewer, S. A., et al., ((1992) Nature, 358:771-774) were employed.
(§5) CV-1 cells were seeded in 24 well culture plates at 2×10^5 cells per well, and cultured for 24 hours using 4%-fetal bovine serum(FBS)-added OPTI-MEM I Reduced Serum Medium (Life Technologies, 500 μL/well). Subsequently, the cells were washed with non serum-added OPTI-MEM. To the washed cells were added DNA-containing solution [the following components were contained in the one well solution (250 μl): 0.03 μg of GAL4-hPPARδ LBD, 0.25 μg of UASx4-TK-LUC, 0.35 μg of βGAL, and 2 μL of lipofection reagent, DMRIE-C (Life Technologies). These components were dissolved in OPTI-MEM and allowed to stand for 30 minutes at room temperature]. The cells were incubated for 5 hours at 37° C.
(§6) The cells were then incubated for 40 hours in 500 μL of fresh OPTI-MEM containing 4% FBS and the test compound (dissolved in 100% DMSO to reach a final concentration: 10^−4M or 10^−5M).
(§7) The culture medium was removed and the cells were washed with PBS twice. Cell lysates were produced using a solubilizing buffer (25 mM Tris-PO4 (pH 7.8), 15%v/v glycerol, 2% CHAPS, 1% Lecithin, 1% BSA, 4 mM EGTA (pH 8.0), 8 mM MgCl2, 1 mM DTT). A portion (20 μL) of the solution was transferred onto a 96-well plate. Subsequently, 100 μL of luciferase substrate solution (Piccagene: available from Nippon Gene Co., Ltd.) was added, and a luminous intensity per one sec. (luciferase activity) was measured by means of MLR-100 type Microluminoreader (available from Corona Electrics Co., Ltd.). Further, the activity caused by […] incorporation which was incorporated into the cells simultaneously with the incorporation of the luciferase gene was measured, for correcting variation of luciferase activity by the addition of the compound, utilizing the transfection efficiency of the incorporated gene. β-Galactosidase activity was measured by the following method: 50 μL of the solubilized sample was placed on another 96-well plate; 10 μL of ONPG (2-nitrophenyl-β-galactopyranoside) solution was added; incubation was carried out for 5 minutes at room temperature; 50 μL of a reaction stopping solution (1M sodium carbonate solution) was added; and the absorbance at 414 nm was measured.

The next assay addresses T2, PPARγ (Homo sapiens, UniProt P37231).
T2 construct: Receptor expression plasmid (GAL4-hPPARα, LBD GAL4-hPPARγ LBD, GAL4-hPPARδ LBD); expressed in transfected cells; host or cells: CV-1 cells
T2 sequence (P37231 238-503 limits assumed): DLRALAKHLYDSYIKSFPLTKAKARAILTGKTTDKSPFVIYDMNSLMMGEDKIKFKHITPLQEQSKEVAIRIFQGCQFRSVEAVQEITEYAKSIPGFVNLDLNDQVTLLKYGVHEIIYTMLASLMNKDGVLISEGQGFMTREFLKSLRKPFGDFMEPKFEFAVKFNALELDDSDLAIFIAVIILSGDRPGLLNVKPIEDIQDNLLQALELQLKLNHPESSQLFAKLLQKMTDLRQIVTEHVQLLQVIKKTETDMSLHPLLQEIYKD
The assay is described as follows: PPARγ transactivation activity (GAL4-hPPARγ LBD / UASx4-TK-LUC reporter in CV-1 cells). To be noted: for PPARγ transactivation activity: a relative value (control = 100%): compound at 10^−5 M, CV-1 cells, Table 25; for Emax: CV-1, in the manner as described in Example 9, Table 26, read-out: PPARγ (PPAR activating power). The procedure: In the same manner, relative ligand activities to PPARδ and γ transactivation activitis are calculated (see the below-mentioned Example 9).
as §1, §2, §3, §4, §5, §6, §7

The target of the next assay is T3, PPARδ (Homo sapiens, UniProt Q03181).
T3 construct: A chimeric receptor expression plasmid (GAL4-hPPARδ LBD); expressed in transfected cells; host or cells: CV-1 cells
T3 sequence (Q03181 211-439 limits assumed): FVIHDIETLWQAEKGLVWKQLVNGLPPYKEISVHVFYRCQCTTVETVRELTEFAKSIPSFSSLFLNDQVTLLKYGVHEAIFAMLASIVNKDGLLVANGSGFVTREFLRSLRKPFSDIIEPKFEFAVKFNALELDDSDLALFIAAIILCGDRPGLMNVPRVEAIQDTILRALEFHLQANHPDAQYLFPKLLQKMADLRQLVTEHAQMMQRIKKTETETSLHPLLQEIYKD
The assay is described as follows: PPARδ transactivation activity (GAL4-hPPARδ LBD / UASx4-TK-LUC reporter in CV-1 cells). As to conditions: for activity to PPARδ relative to activity to PPARα and γ (selectivity) / PPARδ transactivation activity: a relative value (control = 100%): CV-1 cells; for activity to PPARδ relative to activity to PPARα and γ (selectivity): GAL4-hPPAR LBD reporter, relative activities vs control reagents; for PPARδ transactivation activity: a relative value (control = 100%): compound at 10^−5 M, Table 25; for Emax: CV-1, 40 h, in the manner as described in Example 9, Table 26, read-out: PPARδ (PPAR activating power). The procedure: A chimeric receptor expression plasmid (GAL4-hPPARδ LBD), a reporter plasmid (UASx4-TK-LUC) and β-galactosidase (β-GAL) are transfected into CV-1 cells by utilizing a lipofection reagent DMRIE-C (Life Technologies).
as §1
CV-1 was obtained from Tohoku University Aging Medical Laboratory, Medical Cell Collection Center.
as §5, §6, §7

Take `CC(C)c1oc(-c2ccccc2Cl)nc1CCC(=O)c1ccc(OC(C)(C)C(=O)O)cc1` [Example 1, 2-[4-[3-[2-(2-Chlorophenyl)-5-isopropyl-4-oxazolyl]propionyl]phenyloxy]-2-methylpropionic acid]: the “PPARα transactivation activity: a relative value (control = 100%)” value on PPARα (compound at 10^−5 M) is on record as 9 ± 1%. The “PPARγ transactivation activity: a relative value (control = 100%)” value at PPARγ came to 27 ± 3%. Also, at PPARδ, the “activity to PPARδ relative to activity to PPARα and γ (selectivity)” value is listed as “selectively higher”; the “PPARδ transactivation activity: a relative value (control = 100%)” value stood at 80 ± 10%.

For `CC(C)c1oc(-c2ccc(Cl)cc2Cl)nc1CC=Cc1ccc(OC(C)(C)C(=O)O)cc1` [Example 7-10, 2-[4-[3-[2-(2,4-Dichlorophenyl)-5-isopropyl-4-oxazolyl]-1-propenyl]phenyloxy]-2-methylpropionic acid], the values for the Emax at PPARα, at PPARγ and on PPARδ were 3%, 1% and 70%, respectively.

In the case of `CC(C)c1oc(-c2ccc(-c3ccccc3)cc2Cl)nc1CCC(=O)c1ccc(OC(C)(C)C(=O)O)cc1` [Example 7-14, 2-[4-[3-[2-(3-Chloro-4-biphenylyl)-5-isopropyl-4-oxazolyl]propionyl]phenyloxy]-2-methylpropionic acid], the Emax is 2% on PPARα, 18% at PPARγ and 53% on PPARδ.

For the compound `CC(C)c1oc(-c2ccccc2Cl)nc1CC=Cc1ccc(OC(C)(C)C(=O)O)cc1` [Example 5, 2-[4-[3-[2-(2-Chlorophenyl)-5-isopropyl-4-oxazolyl]-1-propenyl]phenyloxy]-2-methylpropionic acid], on PPARα (compound at 10^−5 M), the “PPARα transactivation activity: a relative value (control = 100%)” value is reported as 52 ± 7%. In addition, the “PPARγ transactivation activity: a relative value (control = 100%)” value on PPARγ worked out at 36 ± 3%. Further, at PPARδ, the “activity to PPARδ relative to activity to PPARα and γ (selectivity)” value is listed as “selectively higher”; the “PPARδ transactivation activity: a relative value (control = 100%)” value is reported as 114 ± 1%.

In the case of `CC(C)c1oc(-c2cccc(Cl)c2O)nc1CCC(=O)c1ccc(OC(C)(C)C(=O)O)cc1` [Example 7-12, 2-[4-[3-[2-(3-Chloro-2-hydroxyphenyl)-5-isopropyl-4-oxazolyl]propionyl]phenyloxy]-2-methylpropionic acid], the Emax at PPARα came to 8 ± 1%; on PPARγ, 4%; at PPARδ, 79 ± 2%. Also, the “activity to PPARδ relative to activity to PPARα and γ (selectivity)” value at PPARδ is reported as “selectively higher”.

Consider `CC(C)c1oc(-c2ccc(-c3ccccc3)cc2)nc1CCC(=O)c1ccc(OC(C)(C)C(=O)O)cc1` [Example 7-8, 2-[4-[3-[2-(4-Biphenylyl)-5-isopropyl-4-oxazolyl]-propionyl]phenyloxy]-2-methylpropionic acid], for which the Emax at PPARα stood at 1%; on PPARγ, 26%; on PPARδ it was 58%.

In the case of `CCC(C)(Oc1ccc(C(=O)CCc2nc(-c3ccc(Cl)cc3Cl)oc2C(C)C)cc1)C(=O)O` (stereo not drawn) [Example 7-5, 2-[4-[3-[2-(2,4-Dichlorophenyl)-5-isopropyl-4-oxazolyl]propionyl]phenyloxy]-2-methylbutyric acid], the values for the Emax on PPARα, on PPARγ and at PPARδ were 1%, 2% and 58 ± 14%, respectively.

Regarding `CC(C)c1oc(-c2ccc(Br)cc2Cl)nc1CCC(=O)c1ccc(OC(C)(C)C(=O)O)cc1` [Example 7-13, 2-[4-[3-[2-(4-Bromo-2-chlorophenyl)-5-isopropyl-4-oxazolyl]propionyl]phenyloxy]-2-methylpropionic acid], the Emax came to 1% at PPARα, 3% on PPARγ and 81% on PPARδ.

Turning to `Cc1nc(-c2ccc(C(F)(F)F)cc2)sc1CCC(=O)c1ccc(OC(C)(C)C(=O)O)cc1` [Example 8-1, 2-[4-[3-[2-[(4-Trifluoromethyl)phenyl]-4-methyl-5-thiazolyl]propionyl]phenyloxy]-2-methylpropionic acid], on PPARα (compound at 10^−5 M, control WY-14643 (10^−4M), Table 27), the “PPARα transactivation activity: a relative value at 10^−5 M (control = 100%)” value is 129% and 126% and 120% and 166%.

As to `CCCc1c(OCCCOc2ccc(OCC(=O)O)cc2)ccc(C(C)=O)c1O` [Example L-165041, reference compound], the values for the Emax at PPARα and at PPARγ were 2 ± 1% and 1 ± 0.03%, respectively.
